# From US20070191337A1, “Annellated carbamyl-aza-heterocyclic compounds, a focused library, pharmaceutical compositions, and methods of preparing the same” (priority 2004, published 2007)
# Assays:
# Assay in all cases: Anticancer activity: growth inhibition in tissue culture (Alamar Blue)
# Assay type in all cases: cell-based
# [1] = system: DLD-1 (adenocarcinoma of the rectum); details: DLD-1 cells, 30 μM, 48 hours, Alamar Blue fluorescence; result in words
# Experimental: (§1) A focused library was compiled to include compounds of general formula 1, as shown in Tables 1.01 to 1.23, and tested for anticancer activity. Anticancer activity of the compounds was measured by their capacity to kill cancerous cells in a tissue culture. Three cell lines representing three types of cancerous tumors were chosen, in particular: DLD-1 (adenocarcinoma of the rectum), DU-145 ([…]), and T-47D (tumor of the mammary gland). All the cell cultures were received from the American Tissue Culture Collection (ATCC). The efficiency of the compounds was assessed by measuring the number of […] cells following treatment with the test compounds over 48 hours. The cells were seeded at a concentration of 5*10^3 cells per hole of a standard 96-hole plate and left overnight for cells to be attached to the hole bottom. Whereupon the test compounds were added to the cells at an ultimate concentration of 30 μM, and the plates were left for 48 hours in an incubator at 37° C. maintaining the 5% CO2/95% air atmosphere at 100% humidity. At the end of the experiment, the medium with the compounds was sucked out of all the holes, and the holes were rinsed twice with physiological solution. […] of Alamar Blue solution was added to each hole, and fluorescence (λex=531 nm, λem=589 nm) was measured immediately after addition and 2 hours thereafter. The rate of fluorescence growth was proportional to the number of cells that survived incubation with the test compounds [John O'Brien, Ian Wilson, Terry Orton and Francois Pognan, “Investigation of the Alamar Blue (resazurin) Fluorescent Dye for the Assessment of Mammalian Cell Cytotoxicity.” Eur. J. Biochem. 2000,b 267, 5421-5426]. The proportion of cell growth suppression was found from the following equation: % of growth inhibition=((ΔΦk−ΔΦi)/ΔΦk)*100%, wherein: ΔΦ means increase in fluorescence over […] following addition of the Alamar Blue solution, and the subscripts […] and i mean, respectively, control cells (grown without any compounds added) and experimental cells (grown in the presence of test compounds).
# [2] = system: DU-145 (carcinoma of the brain); details: DU-145 cells, 30 μM, 48 hours, Alamar Blue fluorescence; result in words
# Experimental: as §1
# [3] = system: T-47D (tumor of the mammary gland); details: T-47D cells, 30 μM, 48 hours, Alamar Blue fluorescence; result in words
# Experimental: as §1
structure (smiles),measurement,setting,value
"CCc1ccc(-c2cc3n(n2)CC(C)(C(=O)NC2CCCCC2)N(CCN2CCCC2)C3=O)cc1 (stereo not drawn) [1.5(3){50}, cyclohexylamide of 6-methyl-4-oxo-5-(2-pyrrolidin-1-yl-ethyl)-2-(4-ethylphenyl)-4,5,6,7-tetrahydropyrazolo[1,5-a]pyrazine-6-carbonic acid]",suppression of tumor cell growth (% of growth inhibition),[1],equally good at suppressing cell growth in all three cancer tumors
same,suppression of tumor cell growth (% of growth inhibition),[2],equally good at suppressing cell growth in all three cancer tumors
same,suppression of tumor cell growth (% of growth inhibition),[3],equally good at suppressing cell growth in all three cancer tumors
